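Step 1: Grow cells in 96-well plates. Step 2: Expose to compound for 48 hours at 5 concentrations. Step 3: Interpolate endpoints linearly; if unreached, use highest concentration. The concentration for 50% growth inhibition is given as GI50. Definition used: TGI = concentration required for complete inhibition of growth.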

Common to all, as to test: inhibition of tumour cell growth, NCI panel, 48 h
The test system of assay [1] is HS 578T breast.
In assay [2] the test system is PC-3 prostate.
The test system of assay [3] is SK-MEL-5 melanoma.
The subject of assay [4] is SK-MEL-2 melanoma.
The subject of assay [5] is HCC-2998 colon.
In assay [6] the test system is HL-60(TB) leukemia.
Assay [7] relates to HCT-15 colon.
In assay [8] the test system is SF-268 CNS.
Assay [9] has as its system OVCAR-3 ovarian.
Assay [10] deals with A549 NSCLC.

With `COc1cc(NS(=O)(=O)c2ccc(-c3cnc(C4CC4)o3)cc2)ccc1F`, the GI50 was 376 nM in assay [1]; 329 nM in assay [2]; 638 nM in assay [3]; 706 nM in [4]; 1090 nM in [5]; 247 nM in assay [6]. Moreover, the GI50 was 198 nM in [7], 2650 nM in [8], 437 nM in assay [9] and 826 nM in [10]. Also, the TGI in assay [1] is 23500 nM; in assay [2], 17000 nM; in [3] it was 13100 nM; in [4], 23600 nM; in assay [5], 12700 nM; in [6] it was 6860 nM. The TGI in assay [7] was 17100 nM; in [8], 30700 nM; in [9], 16000 nM; in [10] it was over 45800 nM.
Regarding `Cc1ccc2c3c(c(=O)[nH]c2c1)C1(C(C#N)=C(N)O3)c2cc(Br)ccc2-c2ccc(Br)cc21`, the GI50 in assay [1] is 2220 nM; in assay [2] it was 1850 nM; in assay [3] it was 10200 nM; in assay [4], 2520 nM; in assay [5], 2150 nM; in assay [6], 18800 nM. Besides, the GI50 in assay [7] is 2230 nM; in [8], 2030 nM; in assay [9], 2110 nM; in assay [10] it was 2010 nM. Besides, the TGI in assay [1] turned out to be 5950 nM; in [2], 4000 nM; in [3] it was 24100 nM; in assay [4], 6720 nM; in [5] it was 4740 nM; in assay [6] it was 66700 nM. For the same compound, the TGI turned out to be 5540 nM in assay [7], 5080 nM in [8], 4760 nM in assay [9] and 4520 nM in [10].
Consider `COC(=O)c1c(C)[nH]c(/C=C2\N=C(c3ccc[nH]3)C=C2OC)c1C`, for which the GI50 in [1] is 693 nM; in [2], 349 nM; in assay [3], 225 nM; in [4] it was 328 nM; in assay [5], 668 nM; in [6] it was 164 nM. In addition, the GI50 was 37.5 nM in assay [7], 260 nM in assay [8], 152 nM in assay [9] and 387 nM in [10]. For the same compound, the TGI in assay [2] was over 100000 nM; in assay [3], 665 nM; in assay [4], 1270 nM; in assay [5] it was 2780 nM; in assay [6], 2330 nM; in assay [7], 1240 nM. Besides, the TGI in assay [8] is over 100000 nM; in [9], 2090 nM.
Consider `COc1cc2c3c(n(C)c(=O)c2cc1OC)-c1cc2c(cc1/C3=C\CNCCCN)OCO2`, for which the GI50 was 1280 nM in assay [1]; 272 nM in [2]; 1030 nM in [3]; 2330 nM in assay [4]; 501 nM in [5]; 171 nM in [6]. For the same compound, the GI50 in assay [7] was 3130 nM; in [8], 762 nM; in assay [9] it was 1370 nM; in [10] it was 1430 nM. For the same compound, the TGI in assay [1] is 6060 nM; in assay [2], 3160 nM; in [3] it was 2710 nM; in assay [5] it was 1990 nM; in assay [6] it was 782 nM; in [7], 17700 nM. Besides, the TGI is 10800 nM in assay [8], 7660 nM in assay [9] and over 25100 nM in [10].
Regarding `CCN(CC)CCCC(C)Nc1cnc(C(=O)Nc2cccc3ccc(OC)nc23)cn1` (configuration not stated), the GI50 in assay [1] is 11000 nM; in [2] it was 2830 nM; in assay [3], 1770 nM; in assay [4], 1850 nM; in assay [5] it was 1820 nM; in [6], 1920 nM. Also, the GI50 in [7] was 1950 nM; in assay [8], 11200 nM; in assay [9] it was 2240 nM; in [10], 2600 nM. Besides, the TGI stood at 28500 nM in [1]; 10500 nM in [2]; 3210 nM in assay [3]; 3680 nM in [4]; 3460 nM in assay [5]; 3900 nM in assay [6]. The TGI in assay [7] came out at 4310 nM; in [8], 25800 nM; in assay [9], 5240 nM; in assay [10], 7020 nM.
In the case of `C/C=C(\C)CC/C=C/CO[Si](C)(C)C(C)(C)C`, the TGI in assay [1] was over 100000 nM; in assay [2] it was over 100000 nM; in assay [3], over 100000 nM; in assay [4], over 100000 nM; in assay [5] it was over 100000 nM; in assay [6], 52100 nM. Besides, the TGI in assay [7], in assay [8], in assay [9] and in assay [10] was over 100000 nM in each case.
In the case of `COc1ccc(OC)c(C(=O)c2oc3ccc(Br)cc3c2N)c1`, the GI50 in assay [1] was 403 nM; in assay [2] it was 580 nM; in assay [3] it was 410 nM; in assay [4], 357 nM; in assay [5] it was 1320 nM; in [6], 270 nM. In addition, the GI50 in assay [7] was 214 nM; in assay [8] it was 725 nM; in [9], 347 nM; in [10], 493 nM. Besides, the TGI was over 64800 nM in [1]; over 51000 nM in assay [2]; 16900 nM in assay [3]; 4340 nM in assay [4]; 12800 nM in assay [5]; 10300 nM in assay [6]. Moreover, the TGI in assay [7] is 14200 nM; in assay [8], over 59500 nM; in assay [9] it was 3280 nM; in assay [10], over 54600 nM.
On to `CNc1nc(N)c(N=O)c(Nc2ccc(Br)cc2)n1`, for which the TGI in assay [1] was 65000 nM; in assay [2] it was over 100000 nM; in assay [3], over 100000 nM; in assay [4], over 100000 nM; in assay [5] it was over 100000 nM; in assay [6], over 100000 nM. Besides, the TGI in assay [7], in assay [8], in [9] and in [10] was over 100000 nM in each case.

Values taken from PubChem BioAssay (NCI).
